Three molecules from ChEMBL document CHEMBL5584204, “Discovery of a novel tetrahydroimidazo[1,2-a]pyridine-5-carboxylic acid derivative as a potent and selective heparanase-1 inhibitor utilizing an improved synthetic approach” (Bioorg Med Chem Lett, 2024) can be followed below.

Test [1] can be described thus: Inhibition of GBA (unknown origin). Also noted: species or system Homo sapiens.
For another test, the target named is T1, Heparanase (Homo sapiens, UniProt Q9Y251).
T1 sequence (Q9Y251 whole entry): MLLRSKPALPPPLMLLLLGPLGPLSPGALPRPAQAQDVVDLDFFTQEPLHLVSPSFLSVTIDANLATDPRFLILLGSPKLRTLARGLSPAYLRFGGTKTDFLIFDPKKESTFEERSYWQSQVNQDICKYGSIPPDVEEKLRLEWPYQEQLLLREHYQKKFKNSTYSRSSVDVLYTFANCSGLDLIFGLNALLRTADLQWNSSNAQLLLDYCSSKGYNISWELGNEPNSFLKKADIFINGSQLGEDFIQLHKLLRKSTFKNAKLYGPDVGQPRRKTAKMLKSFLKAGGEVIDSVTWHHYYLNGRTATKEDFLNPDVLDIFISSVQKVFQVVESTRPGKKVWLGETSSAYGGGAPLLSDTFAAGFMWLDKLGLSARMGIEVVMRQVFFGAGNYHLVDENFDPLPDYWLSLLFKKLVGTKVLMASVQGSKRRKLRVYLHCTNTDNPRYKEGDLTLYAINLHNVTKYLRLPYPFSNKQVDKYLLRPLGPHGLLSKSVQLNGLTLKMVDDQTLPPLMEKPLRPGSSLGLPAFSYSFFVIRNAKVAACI
The test is described as follows: Inhibition of HPSE1 (unknown origin).

The next test has as its target T2, Beta-glucuronidase (Homo sapiens, UniProt P08236).
T2 sequence (P08236 whole entry): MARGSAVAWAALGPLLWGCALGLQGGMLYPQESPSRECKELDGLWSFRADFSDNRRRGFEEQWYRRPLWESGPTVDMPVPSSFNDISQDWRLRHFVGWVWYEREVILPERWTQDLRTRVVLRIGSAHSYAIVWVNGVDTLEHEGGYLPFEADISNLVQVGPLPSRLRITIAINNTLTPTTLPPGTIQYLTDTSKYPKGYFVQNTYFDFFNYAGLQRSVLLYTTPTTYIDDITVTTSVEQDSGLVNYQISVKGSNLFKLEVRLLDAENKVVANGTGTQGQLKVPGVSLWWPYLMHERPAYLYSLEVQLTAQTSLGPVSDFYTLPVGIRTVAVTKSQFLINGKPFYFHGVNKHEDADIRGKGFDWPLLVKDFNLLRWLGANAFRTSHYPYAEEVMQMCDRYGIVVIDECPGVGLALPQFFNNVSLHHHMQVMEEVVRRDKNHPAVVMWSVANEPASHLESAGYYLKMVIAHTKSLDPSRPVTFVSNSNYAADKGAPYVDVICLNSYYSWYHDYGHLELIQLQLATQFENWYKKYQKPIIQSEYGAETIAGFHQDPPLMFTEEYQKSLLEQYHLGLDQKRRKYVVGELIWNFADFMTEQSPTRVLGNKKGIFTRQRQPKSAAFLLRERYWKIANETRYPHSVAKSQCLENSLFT
Briefly: Inhibition of GUSbeta (unknown origin).

In the case of `CO[C@H]1[C@H](O)[C@@H](O)c2nc(CCc3cccc(Oc4ccccc4)c3)cn2[C@@H]1C(=O)O`, the IC50 in test [1] was 0.439 µM.

In the case of `O=C(O)[C@@H]1[C@@H](OCCc2ccccc2)[C@H](O)[C@@H](O)c2nc(CCc3cccc(Oc4ccccc4)c3)cn21`, the IC50 against Heparanase turned out to be 0.057 µM; against Beta-glucuronidase it was 7.21 µM; in test [1] it was 1.25 µM.

On to `CC(C)O[C@H]1[C@H](O)[C@@H](O)c2nc(CCc3cccc(Oc4ccccc4)c3)cn2[C@@H]1C(=O)O`, for which the IC50 against Heparanase turned out to be 0.621 µM; at Beta-glucuronidase, 41.8 µM; in test [1] it was 38.6 µM.

By IC50 is commonly meant the concentration needed to halve the response being measured. Lower therefore signals greater potency.
